Laboratory results reported in patent US20040152708A1, “Trans-9,10-dehydroepothilone C and D, analogs thereof and methods of making the same” (priority 2002, published 2004).

Tests used:
[1] = system: Human non-small cell lung cancer cell line A549; assay: SRB cytotoxicity assay, A549; assay type: cell-based; conditions: Table 2; as described in Example 48; read-out: IC50 (nM) A549
Protocol: (§1) Compounds of the invention may be screened for cytotoxicity using conventional assays well known to those skilled in the art. For example, cytotoxicity of the compounds may be determined by the SRB assay as disclosed in Skehan et al., J. Natl. Cancer Inst. 82:1107-1112 (1990), which is incorporated herein by reference. In the SRB assay, the following cultured cells are trypsinized, counted and diluted to the following concentrations per 100 μl with growth medium: MCF-7, 5000; NCI/ADR-Res, 7500; NCI-H460, 5000; A549, 5000; Skov3, 7500; and SF-268, 7500. The cells are seeded at 100 μl/well in 96-well microtiter plates. Twenty-four hours later, 100 μl of a test epothilone compound of the invention (ranging in concentration from 1000 nM to 0.001 nM diluted in growth medium) is added to each well. After incubation, with the compound for a period of days, the cells are fixed with 100 μl of 10% trichloroacetic acid (“TCA”) at 4 degrees for 1 hour, and stained with 0.2% sulforhodamine B (SRB)/1% acetic acid, and the bound SRB is then extracted with 200 μl of 10 mM Tris base. The amount of bound dye is determined by OD 515 nm, which correlates to the total cellular protein contents. The data is analyzed using standard statistical methodologies (such as those available with the software sold as KALEIDA GRAPH® by Synergy Software of Reading, Pa.) and the IC50s are calculated.
(§2) Human breast carcinoma cell line MCF-7, multi-drug resistant breast carcinoma cell line NCI/ADR, were obtained from the National Cancer Institute. Human non-small cell lung cancer cell line A549 and human ovarian cancer cell line SKOV-3 were obtained from American Type Culture Collection (Manassas, Va.). All cell lines were maintained in RPMI-1640 medium (Gibco/BRL, Rockville, Md.) supplemented with 2 mM L-glutamine, 25 mM HEPES and 10% FBS (Hyclone, Logan, Utah). Cells were maintained in a humidified incubator at 37° C. in 5% CO2.
(§3) Tumor cells were seeded in 100 μl at 5000 (MCF-7), 7500 (NCI/ADR), 5000 (A549) and 7500 (SKOV3) cells per well in 96-well plates. Cells were allowed to adhere for 24 hours. Each compound ranging from 0.001 to 1000 nM in 100 μl was added to cells in duplicate wells. After 3 days, cells were fixed at 4° C. for 1 hour with 10% trichloroacetic acid and then stained with 0.2% sulforhodamine B (SRB)/1% acetic acid for 20 minutes at room temperature. The unbound dye was rinsed away with 1% acetic acid, and the bounded SRB was then extracted with 200 μl of 10 mM Tris base. The absorbance was measured at 515 nm using a 96-well microtiter plate reader (Spectra Max 250, Molecular Devices). The IC50 values were calculated using a KaleidaGraph program. The experiments were performed twice.

[2] = system: multi-drug resistant breast carcinoma cell line NCI/ADR; assay: SRB cytotoxicity assay, NCI/ADR; assay type: cell-based, human; conditions: Table 2; as described in Example 48; read-out: IC50 (nM) NCI/ADR
Protocol: as §1, §2, §3

[3] = system: human ovarian cancer cell line SKOV-3; assay: SRB cytotoxicity assay, SKOV3; assay type: cell-based; conditions: Table 2; as described in Example 48; read-out: IC50 (nM) Skov
Protocol: as §1, §2, §3

[4] = system: Human breast carcinoma cell line MCF-7; assay: SRB cytotoxicity assay, MCF-7; assay type: cell-based; conditions: Table 2; as described in Example 48; read-out: IC50 (nM) MCF-7
Protocol: as §1, §2, §3

CYP2C19 = molecular target: T1, CYP2C19 (Homo sapiens, UniProt P33261); assay: Cytochrome P450 inhibition, CYP2C19; assay type: in vitro ADME
T1 construct: purchased BD GenTest, Woburn, Mass
T1 sequence (P33261 whole entry): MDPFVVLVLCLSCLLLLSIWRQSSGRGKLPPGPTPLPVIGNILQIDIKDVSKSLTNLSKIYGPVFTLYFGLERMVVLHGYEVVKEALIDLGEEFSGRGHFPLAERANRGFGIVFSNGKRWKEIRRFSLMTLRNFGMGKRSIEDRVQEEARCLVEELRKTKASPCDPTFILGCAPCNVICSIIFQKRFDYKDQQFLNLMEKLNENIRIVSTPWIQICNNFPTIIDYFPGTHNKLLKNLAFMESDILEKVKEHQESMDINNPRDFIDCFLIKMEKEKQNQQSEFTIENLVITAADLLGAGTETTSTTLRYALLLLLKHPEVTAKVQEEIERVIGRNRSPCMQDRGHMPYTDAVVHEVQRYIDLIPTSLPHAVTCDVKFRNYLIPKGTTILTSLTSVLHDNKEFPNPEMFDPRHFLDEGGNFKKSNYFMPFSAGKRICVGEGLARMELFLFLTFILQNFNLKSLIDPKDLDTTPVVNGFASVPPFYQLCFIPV

CYP2C9 = molecular target: T2, CYP2C9 (Homo sapiens, UniProt P11712); assay: Cytochrome P450 inhibition, CYP2C9; assay type: in vitro ADME
T2 construct: purchased BD GenTest, Woburn, Mass
T2 sequence (P11712 whole entry): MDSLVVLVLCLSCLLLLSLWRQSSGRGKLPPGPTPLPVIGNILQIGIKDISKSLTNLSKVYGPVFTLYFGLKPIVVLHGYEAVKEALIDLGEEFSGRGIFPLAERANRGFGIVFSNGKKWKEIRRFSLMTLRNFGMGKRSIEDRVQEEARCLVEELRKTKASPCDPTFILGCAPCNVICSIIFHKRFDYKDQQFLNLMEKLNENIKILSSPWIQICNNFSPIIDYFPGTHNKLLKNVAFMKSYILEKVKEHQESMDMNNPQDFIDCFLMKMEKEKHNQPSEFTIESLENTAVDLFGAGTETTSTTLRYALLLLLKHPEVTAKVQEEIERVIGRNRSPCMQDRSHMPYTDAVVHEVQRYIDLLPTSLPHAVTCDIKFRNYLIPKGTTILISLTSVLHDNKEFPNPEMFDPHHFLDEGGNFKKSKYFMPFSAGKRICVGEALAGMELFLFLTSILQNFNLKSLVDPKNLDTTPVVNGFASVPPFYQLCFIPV

C/C1=C/C[C@@H](/C(C)=C/c2cccnc2)OC(=O)C[C@H](O)C(C)(C)C(=O)[C@H](C)[C@@H](O)[C@@H](C)/C=C/C1 [KOSN-1690]
IC50 [1]: 38 nM | IC50 [2]: 110 nM | IC50 [3]: 39 nM | IC50 [4]: 35 nM

C/C1=C/C[C@@H](/C(C)=C/c2ccc(CO)cn2)OC(=O)C[C@H](O)C(C)(C)C(=O)[C@H](C)[C@@H](O)[C@@H](C)/C=C/C1 [KOSN-1703]
IC50 [1]: 2.4 nM | IC50 (CYP2C19): 10.2 µM | IC50 (CYP2C9): 4 µM | IC50 [2]: 7.1 nM | IC50 [3]: 4.5 nM | IC50 [4]: 0.61 nM

C/C1=C/C[C@@H](/C(C)=C/c2c[nH]cn2)OC(=O)C[C@H](O)C(C)(C)C(=O)[C@H](C)[C@@H](O)[C@@H](C)/C=C/C1 [KOSN-1712]
IC50 [1]: 31 nM | IC50 [2]: 220 nM | IC50 [3]: 37 nM | IC50 [4]: 20 nM

C/C1=C/C[C@@H](/C(C)=C/c2cc(C)on2)OC(=O)C[C@H](O)C(C)(C)C(=O)[C@H](C)[C@@H](O)[C@@H](C)/C=C/C1 [KOSN-1724]
IC50 [1]: 5.3 nM | IC50 (CYP2C19): 10.9 µM | IC50 (CYP2C9): 12.9 µM | IC50 [2]: 6.1 nM | IC50 [3]: 5.3 nM | IC50 [4]: 2.5 nM

C/C1=C/C[C@@H](/C(C)=C/c2csc(CN3CCOCC3)n2)OC(=O)C[C@H](O)C(C)(C)C(=O)[C@H](C)[C@@H](O)[C@@H](C)/C=C/C1 [KOSN-1727]
IC50 [1]: 420 nM | IC50 [2]: 410 nM | IC50 [3]: 490 nM | IC50 [4]: 390 nM

COc1ccnc(/C=C(\C)[C@@H]2C/C=C(/C)C/C=C/[C@H](C)[C@H](O)[C@@H](C)C(=O)C(C)(C)[C@@H](O)CC(=O)O2)c1 [KOSN-1756]
IC50 [1]: 4 nM | IC50 (CYP2C19): 1.9 µM | IC50 (CYP2C9): 7.1 µM | IC50 [2]: 4.9 nM | IC50 [3]: 4 nM | IC50 [4]: 2.1 nM

COC(=O)c1ccc(/C=C(\C)[C@@H]2C/C=C(/C)C/C=C/[C@H](C)[C@H](O)[C@@H](C)C(=O)C(C)(C)[C@@H](O)CC(=O)O2)nc1 [KOSN-1765]
IC50 [1]: 350 nM | IC50 [2]: 360 nM | IC50 [3]: 220 nM | IC50 [4]: 44 nM
